The source of these data is patent US9687483B2, “Treatment of cerebral cavernous malformations and cerebral aneurysms with Rho kinase inhibitors” (priority 2015, dated 2017).

The structures appear in SMILES notation. Where “and” joins values, the source holds several entries; their conditions need not be identical. Identical values can stand only once. Like-named read-outs stand apart in the source and are kept apart here.

The test system of data set [1] is HUVEC cells. Description: Endothelial cell actin cytoskeleton, Rhodamine-phalloidin staining. It counts as cell-based, human. The settings on record: 10 μM or 25 μM.
Another data set deals with cadherin in HUVEC cells. Description: Cadherin expression in HUVEC, Western blot. Type of data set: cell-based, human. The settings on record: 50 μM, 24 hr, vs control; p<0.05. On the technique in general: In western blotting, separated proteins are transferred to a membrane and probed.
The next data set deals with occludin in HUVEC cells. Description: Occludin expression in HUVEC, Western blot. It counts as cell-based, human. Conditions: for Effect on junctional protein expression at lower dose: 25 μM.
In data set [2] the test system is HUVEC cells. Nature of the data set: In vitro endothelial tubulogenesis assay on ECMatrix. Type of data set: cell-based, human. The settings on record: 10 or 50 μM (or μg/mL); 6 hr to 16 hr; vs untreated cells.
In data set [3] the target is ROCK II recombinantly-produced kinase domain (Homo sapiens (Human), UniProt O75116). Conditions: read-out: ROCK II IC50; ATP 10 μM, substrate 200 nM; Fasudil mean ± SD of 3-4 experiments; BA-1049 two individual experiments.
For data set [4], the system named is ROCK II recombinantly-produced kinase domain. The settings on record: ROCK II versus ROCK I.
Data set [5] addresses ROCK I recombinantly-produced kinase domain (Homo sapiens (Human), UniProt Q13464). Conditions: read-out: ROCK I IC50; ATP 10 μM, substrate 200 nM; Fasudil mean ± SD of 3-4 experiments; BA-1049 two individual experiments.
Data set [6] concerns HUVEC cells.
Data set [7] has as its system Caco-2 cell monolayers. Conditions: for Transport mechanism across Caco-2 monolayers: from B to A/A to B Papp ratios; for Caco-2 cell permeability (classification): from measured Papp values.
Data set [8] relates to Caco-2 cell monolayers. Nature of the data set: Caco-2 permeability assay. On the technique in general: Caco-2 cells form a polarised layer with tight junctions and transporters.
Data set [9] has as its system induced intracranial saccular aneurysms in Sprague Dawley rats. Description: Prophylactic reduction of intracranial aneurysm burden in vivo. Also noted: species or system rat. The settings on record: vs control rats.
For data set [10] the test system is unchanged. Description: Reduction of prevalence/size of existing aneurysms in vivo. On the set-up: species or system rat.
The nature of data set [11]: in vitro. Conditions: human, Caco-2, pH 7.4.
For data set [12] the following is noted: known values for controls; cited from earlier work.
The nature of data set [13]: in vitro. The settings on record: human, plasma.
[14] abbreviates: human plasma, 24 hr dialysis, 37° C., mean of 2 replicates.
[15] abbreviates: both, human, 24 h, 35 µM, pH 7.4.
The mark [16] stands for this setting: both, human, plasma, 24 h, 35 µM, pH 7.4.

Chain of ROCK I recombinantly-produced kinase domain (Q13464 76-338): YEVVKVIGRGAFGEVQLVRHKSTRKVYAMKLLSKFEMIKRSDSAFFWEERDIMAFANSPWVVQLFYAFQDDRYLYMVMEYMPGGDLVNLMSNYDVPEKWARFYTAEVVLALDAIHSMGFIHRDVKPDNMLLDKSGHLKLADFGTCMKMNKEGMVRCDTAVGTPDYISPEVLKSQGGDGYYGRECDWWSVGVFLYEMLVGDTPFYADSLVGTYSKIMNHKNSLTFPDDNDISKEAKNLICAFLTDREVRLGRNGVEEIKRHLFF

What is called IC50 is the point on the concentration scale where inhibition reaches its midpoint. `CC(N)C1CCN(S(=O)(=O)c2cccc3cnccc23)CC1.Cl.Cl` (racemic) [BA-1049]: in the data set on HUVEC cells [1], the “Effect on actin stress fibers” value is given as “disrupted stress fibers” and the “Effect on junctional (peripheral) actin distribution” value is given as “little to no effect”. This molecule also registered a Cadherin increase with cadherin in HUVEC cells of 1.2 fold. In addition, in the data set on occludin in HUVEC cells, the “Effect on junctional protein expression at lower dose” value is listed as “no significant effect”. Further, the Occludin increase in the data set on occludin in HUVEC cells (50 μM, 24 hr, vs control, p<0.05) came out at 1.3 fold. Further, the “Endothelial cell tube formation” value in the data set with HUVEC cells [2] is “some tubes are visible but are not always closed and are thin”. Further, in data set [3], the IC50 is 1.6 µM and 0.94 µM. The “Selectivity for Rock II” value in [4] is 13.1 -fold. In addition, the half-inhibitory concentration (IC50) in data set [5] worked out at 21 µM. In addition, in the data set on HUVEC cells [6] (72 hr), the “Disruption of proliferation compared with Fasudil at a given concentration” value is given as “did not disrupt proliferation to the same extent as Fasudil”. Also, the “Proliferation of endothelial cells” value in the data set with HUVEC cells [6] (72 hr incubation) is listed as “reduced proliferation”. The “Concentration at which decrease in cell proliferation appears” value in the data set with HUVEC cells [6] (72 hr, p<0.05 or p<0.01) worked out at 1 µM. For the same molecule, the “Papp A to B” value with Caco-2 cell monolayers [7] (apical to basolateral, 60 min, pH 7.4) was 10.7 ×10⁻⁶ cm/s. Also, the “Papp B to A” value in the data set on Caco-2 cell monolayers [7] (basolateral to apical, 60 min, pH 7.4) was found to be 14.1 ×10⁻⁶ cm/s. Also, in the data set with Caco-2 cell monolayers [7], the “Transport mechanism across Caco-2 monolayers” value is listed as “passively transported” and the “Caco-2 cell permeability (classification)” value is “intermediate to high”. In addition, in the data set on human plasma proteins (setting [14]), the Bound came to 7.26% and the Unbound is 92.7%. Moreover, in the data set on Caco-2 cell monolayers [8], the “B-A/A-B Papp Ratio” value was found to be 1.31.

A word on the Papp A→B: it is how fast a substance crosses the layer from the apical side. Low values mean poor permeation, high ones ready permeation. As usually defined, the Papp B→A is how fast a substance crosses the layer from the basolateral side. As for `O=S(=O)(c1cccc2cnccc12)N1CCCNCC1` [Fasudil], the “Effect on junctional (peripheral) actin distribution” value with HUVEC cells [1] is “disrupted the peripheral actin to a greater extent than the stress fibers”. The molecule also showed a Cadherin increase with cadherin in HUVEC cells of 1.2 fold. In addition, in the data set with occludin in HUVEC cells, the “Effect on junctional protein expression at lower dose” value was “no significant effect”. Besides, the Occludin decrease in the data set on occludin in HUVEC cells (50 μM, 24 hr, vs control, p<0.001) worked out at 50%. For the same molecule, the “Endothelial cell tube formation” value with HUVEC cells [2] is “some tubes are visible but are not always closed and are thin”. In [9], the “Average aneurysm size and area” value is on record as “reduces”; the “Level of inflammatory invasion in a given aneurysm” value is “reduces”; the “Number of iron deposits near a given aneurysm” value is listed as “reduces”; the “Rho kinase activity in the endothelial and smooth muscle cells of the aneurysm wall” value was “reduces”. Further, the “Total number of saccular aneurysms” value in data set [9] (daily or weekly dose for 2 mo) is “reduces”. Besides, the “Total number of saccular aneurysms in 6 mo and 8 mo rats” value in data set [10] (vs baseline (4 mo) results) was “reduces”. Also, in data set [10] (vs control rats), the “Average aneurysm size and area” value is on record as “reduces”; the “Level of inflammatory invasion in a given aneurysm” value is “reduces”; the “Number of iron deposits near a given aneurysm” value is “reduces”; the “Rho kinase activity in the endothelial/smooth muscle cells of the aneurysm wall” value is “reduces”. Further, the “Total number of saccular aneurysms” value in data set [10] (vs control rats) is on record as “reduces”. Besides, in the data set with Caco-2 cell monolayers [7], the “Transport mechanism across Caco-2 monolayers” value is listed as “passively transported” and the “Caco-2 cell permeability (classification)” value is reported as “high”. In the data set on human plasma proteins (setting [15]), this molecule registered a Bound of 19.2%. The Unbound in the data set on human plasma proteins (setting [16]) was determined as 81.8%. In “in vitro [11]”, the Papp A→B at 60 min, 35 µM was 18.9 ×10⁻⁶ cm/s and the Papp B→A at 60 min, 35 µM came out at 18.5 ×10⁻⁶ cm/s.

One may read the efflux ratio as a quotient of directional permeabilities that is used to spot active efflux. For the molecule `OC[C@@H](O)[C@@H](O)[C@H](O)[C@H](O)CO` [[^3H]-Mannitol, D-[1-^3H(N)]Mannitol], the “% absorption in humans” value in data set [12] was 15%. For the same molecule, in “in vitro [11]”, the Papp A→B at 60 min was determined as 2.62 ± 0.81 ×10⁻⁶ cm/s; the Papp A→B at 60 min, 35 µM is 1.01 ± 0.146 ×10⁻⁶ cm/s; the Papp B→A at 60 min was 1.36 ± 0.362 ×10⁻⁶ cm/s; the Papp B→A at 60 min, 35 µM came to 0.821 ± 0.362 ×10⁻⁶ cm/s. Also, the efflux ratio at 60 min, 35 µM in “in vitro [11]” stood at 0.81.

The term fraction unbound denotes free concentration divided by total concentration. Low values mean extensive binding, high ones weak binding. With `CC(C)NC[C@H](O)COc1cccc2ccccc12` [[^3H]-Propranolol, L-(−)-[4-^3H]propranolol], in the data set on human plasma proteins (setting [15]), the Bound amounted to 91.3%. In the data set with human plasma proteins (setting [16]), this molecule yielded an Unbound of 8.67%. In “in vitro [11]”, this molecule displayed a Papp A→B at 60 min of 32.3 ± 5.4 ×10⁻⁶ cm/s; a Papp A→B at 60 min, 35 µM of 36 ± 1.65 ×10⁻⁶ cm/s; a Papp B→A at 60 min of 31 ± 5.27 ×10⁻⁶ cm/s; a Papp B→A at 60 min, 35 µM of 27.8 ± 3.68 ×10⁻⁶ cm/s. The same molecule gave a fraction unbound in “in vitro [13]” of 0.121.
